Results taken from patent US9414579B2, “Systems and methods for controlling pest infestation of a woody plant” (Dow AgroSciences LLC, priority 2013, dated 2016).

Key:
Coptotermes spp. [1] = assay: Example I: field test on a 100 hectare oil palm plot, Quadrants A-D, infested trees inspected monthly for 24 months; assay type: in vivo; settings: liquid fipronil 2.5 ml/5 L drenching
Experimental: Testing was performed to determine the effect in the field of an extruded composite member in the form of Recruit® HD, further details of which are provided in U.S. patent application Ser. No. 12/004,655, on Coptotermes spp. More particularly, a 100 hectare plot of oil palm trees was divided into four quadrants: Quadrants A, B, C and D. The palm oil trees in each of Quadrants A-D were investigated for the presence of termite activity or infestation, and the affected trees were marked accordingly. The affected trees in Quadrants A and C were each treated with liquid fipronil (2.5 ml/5 L drenching), and the affected trees in Quadrants B and D were each treated with a 50 g extruded composite member in the form of Recruit® HD (0.5% hexaflumuron) in a manner similar to that described above in connection with system 60. For Quadrants B and D, consumption of the extruded composite members was investigated and recorded accordingly. Post-treatment inspection of the affected trees was performed on a monthly basis for 24 months following initiation of treatment.
The results of the treatments in Quadrants A-D on a monthly basis over a 24 month period of time following initial treatment are graphically illustrated in FIG. 6.

Coptotermes spp. [2] = assay: Example II: field test on a 60 hectare oil palm plot divided into two plots, infested trees inspected monthly for 24 months; assay type: in vivo; settings: for Infested Trees: plot 1 (4461 trees) liquid fipronil 2.0 ml/5 L drenching, plot 2 (4432 trees) 50 g Recruit HD per affected tree; for % Infestation: cumulative results, plot 1 fipronil, plot 2 Recruit HD
Experimental: Testing was performed to determine the effect in the field of an extruded composite member in the form of Recruit® HD, further details of which are provided in U.S. patent application Ser. No. 12/004,655, on Coptotermes spp. More particularly, a 60 hectare plot of oil palm trees was divided into two plots. The palm oil trees in each of the plots were investigated for the presence of termite activity or infestation, and the affected trees were marked accordingly. The affected trees in plot 1 were each treated with liquid fipronil (2.0 ml/5 L drenching), and the affected trees in plot 2 were each treated with a 50 g extruded composite member in the form of Recruit® HD (0.5% hexaflumuron) in a manner similar to that described above in connection with system 60. For plots 1 and 2, consumption of the extruded composite members was investigated and recorded accordingly. Post-treatment inspection of the affected trees was performed on a monthly basis for 24 months following initiation of treatment.

Structure (SMILES): N#Cc1nn(-c2c(Cl)cc(C(F)(F)F)cc2Cl)c(N)c1[S+]([O-])C(F)(F)F (stereo not drawn) [Fipronil, fipronil]
- Infested Trees (Coptotermes spp. [1]; Quadrant A (2246 trees), 0 months (before treatment)): 29
- Infested Trees (Coptotermes spp. [1]; Quadrant A (2246 trees), 7 months): 30
- Infested Trees (Coptotermes spp. [1]; Quadrant A (2246 trees), 12 months): 29
- Infested Trees (Coptotermes spp. [1]; Quadrant A (2246 trees), 18 months): 20
- Infested Trees (Coptotermes spp. [1]; Quadrant A (2246 trees), 24 months): 13
- Infested Trees (Coptotermes spp. [1]; Quadrant C (2215 trees), 0 months (before treatment)): 71
- Infested Trees (Coptotermes spp. [1]; Quadrant C (2215 trees), 7 months): 45
- Infested Trees (Coptotermes spp. [1]; Quadrant C (2215 trees), 12 months): 51
- Infested Trees (Coptotermes spp. [1]; Quadrant C (2215 trees), 18 months): 40
- Infested Trees (Coptotermes spp. [1]; Quadrant C (2215 trees), 24 months): 22
- Infested Trees (Coptotermes spp. [2]; 0 months (before treatment)): 100
- % Infestation (Coptotermes spp. [2]; 1 year): 2.31%
- % Infestation (Coptotermes spp. [2]; 2 year): 1.76%
- Infested Trees (Coptotermes spp. [2]; 7 months): 75
- Infested Trees (Coptotermes spp. [2]; 12 months): 80
- Infested Trees (Coptotermes spp. [2]; 18 months): 60
- Infested Trees (Coptotermes spp. [2]; 24 months): 35
- % Infestation (Coptotermes spp. [2]; Pre-Treatment): 2.24%
